Here are results for 3 molecules from BindingDB's records for doi:10.1021/jm0201417 (University of Southern California, 2002).

Each structure is given as a SMILES string.

Test [1] can be described thus: Inhibitory activity against viral attachment.
Test [2] can be described thus: Effective concentration of the compound against viral replication by Reverse transcriptase.

Regarding `O=C(NNC(=O)c1ccccc1SSc1ccccc1C(=O)NNC(=O)c1ccccc1S)c1ccccc1S` [Compound 3], in test [1], the IC50 was above 100 µM. This molecule registered an EC50 in test [2] of 17.8 µM.
In test [2], `O=C1NNC(=O)c2ccccc2SSc2ccccc2C(=O)NNC(=O)c2ccccc2SSc2ccccc21` [11,12,13,14,25,26,27,28-octahydrotetrabenzo[c,i,m,s][1,2,11,12,6,7,16,17]tetrathiatetraazacycloicosine-11,14,25,28-tetraone] showed an EC50 of 6 µM.
As to `O=C(NNC(=O)c1ccccc1S)c1ccccc1S` [2-Mercapto-benzoic acid N'-(2-mercapto-benzoyl)-hydrazide], the IC50 in test [1] is above 100 µM. The molecule also registered an EC50 in test [2] of 4.3 µM.
